From patent publication US7666857B2, “2-(3,4-dimethylphenyl)-4-{[2-hydroxy-3′-(1h-tetrazol-5-yl)biphenyl-3-yl]-hydrazono}-5-methyl-2,4-dihydropyrazol-3-one choline” (SmithKline Beecham Corp., priority 2004, dated 2010) come the findings set out here.

The conditions of series [1]: in vivo; choline salt compared with the free acid.
A further series can be described thus: solubility in water. Format: physicochemical.

With `CC1=NN(c2ccc(C)c(C)c2)C(=O)/C1=N\Nc1cccc(-c2cccc(-c3nnn[nH]3)c2)c1O` [Compound A, 2-(3,4-dimethylphenyl)-4-{[2-hydroxy-3′-(1H-tetrazol-5-yl)biphenyl-3-yl]-hydrazono}-5-methyl-2,4-dihydropyrazol-3-one choline], in series [1], the bioavailability result was “enhanced” and the oral exposure result was “enhanced”.
As to `CC1=NN(c2ccc(C)c(C)c2)C(=O)C1=NNc1cccc(-c2cccc(-c3nnn[nH]3)c2)c1O` [free acid, 2-(3,4-dimethylphenyl)-4-{[2-hydroxy-3′-(1H-tetrazol-5-yl)biphenyl-3-yl]-hydrazono}-5-methyl-2,4-dihydropyrazol-3-one], in the series “solubility in water”, the solubility in water entry is listed as “poorly soluble”.
